Source: patent US4036984A, “Soil fungi inhibiting agent” (Nissan Chemical Industries, Ltd., priority 1974, dated 1977)

Tests used:
[1] = test system: Fusarium oxysporum f. cucumerinum; experiment: Fungicidal test by agar dilution method (colony diameter); type: cell-based; conditions: for diameter of the colony: 4 days, 25° C., PSA medium; for growth / inhibition of colony compared with the control: 250-1000 ppm
Procedure: Reference -- Fungicidal Test by Agar Dilution Method
100 mg of the invented compound was taken in a 30 ml conical flask, to which a drop of 1:1 mixture of Solpol 2680 (surface-active agent produced by Toho Kagaku) and xylene (about 25 mg), and 1 ml of acetone were added to dissolve therein. On the other hand, 9 ml of sterilized water separately was further added to emulsify, thereby yielding an emulsion of 10,000 ppm concentration. From this emulsion an emulsion of 5,000 ppm and one of 2,500 ppm were prepared through two times dilution.
In a 100 ml conical flask, 3 ml portion each of these emulsions was taken; 27 ml of potato-sucrose-agar (PSA) medium, at 50°-60° C. was added and uniformly blended. Ten ml of the obtained mixture was poured and hardened on a 10 cm-diameter petri dish.
Meanwhile, a colony of Fusarium oxysporum f. cucumerinum separately cultivated on potato-sucrose-agar (PSA) medium was stamped out by a 4mm-diameter cork-borer and inoculated on the above-mentioned mixed medium. After 4 days of cultivation in a chamber of 25° C., the diameter of the colony was measured, the results being summarized in Table 2. A case of the colony not having grown is indicated by the sign (-).

[2] = test system: Fusarium oxysporum f. cucumerinum; experiment: Test 1: control of Fusarium wilt of cucumber (powder, pot test); type: in vivo; conditions: soil treatment 500 mg (5% powder) and additional irrigation 500 ppm, fourth week of transplanting
Procedure: Test of effect of fungicide on control of Fusarium wilt of cucumber (in case of using powder) Fusarium oxysporum f. cucumerinum which had been cultivated for 1 month at 25° C. on soil-bran medium was air-dried overnight and sifted through a 3mm-mesh sieve. 10g of said culture soil was blended with 600g of sterilized diluvial soil. To 200g of this blended soil were added 1200g of sterilized diluvial soil (containing 2.65 weight % of compost) and 1000mg or 500mg of 5% powder of the invented compound; and these were uniformly mixed in a vat. Next, 1500g of sterilized diluvial soil (containing compost) was placed in a wagner pot of 1/5000 are over which was spread the soil prepared above. Cucumber seedlings of one-leaf stage (variety: "Shimoshirazujibai") which had been cultivated separately in styrol cups in a greenhouse were transplanted into said wagner pot. Each of said cucumber seedlings was singly planted in 200g of the soil placed in said styrol cup and three days before its transplanting, 20 ml of an emulsion of each compound in 300 ppm concentration was irrigated over the soil. In the case of a pot whose soil had been treated with 1000 mg of the compound (5% powder), 14 days after transplanting, 50 ml of an emulsion of the compound in 1000 ppm concentration was additionally irrigated (Test I) and in the case of a pot whose soil had been treated with 500mg of the compound (5% powder), 50 ml of an emulsion of the compound in 500 ppm concentration was additionally irrigated (Test II). The pots were all kept in a greenhouse, and the test was carried out on lots each containing three pots, each pot holding four seedlings.
Every 2 days the withered seedlings were counted and in the fourth week of transplanting, the browning degree of vascular in each seedling was measured; and the effectiveness rating was determined as follows; [formula] (Note)* Fusarium lot is a treated lot containing only Fusarium oxysporum f. cucumerinum.
Sick score is obtained as follows:
Sick score = 3 × a + 2 × b + 1 × c + 0.5 × d + 0 […]
a -- number of withered seedlings b -- number of seedlings in which the browning of vascular has reached the cotyledon part c -- number of seedlings in which the browning of vascular is short of the cotyledon part d -- number of seedlings in which only brown spots have been recognized e -- number of perfectly sound seedlings a + b + c + d + e = 12

[3] = test system: Fusarium oxysporum f. cucumerinum; experiment: Test 6: control of Fusarium wilt of cucumber by spraying stalks and leaves; type: in vivo; conditions: stalks and leaves sprayed with 2000 ppm, third week of transplanting
Procedure: Test of effect of fungicide on control of Fusarium wilt of cucumber, by spraying stalks and leaves with compound.
Fusarium oxysporum f. cucumerinum which had been cultivated for 1 month at 25° C. on soil-bran medium was air-dried overnight and then sifted through a 3mm-mesh sieve.
Next, 1500 g of sterilized diluvial soil (containing compost) was placed in a Wagner pot of 1/5000a, over which the soil prepared above was spread. Cucumber seedlings of one-leaf stage (variety: "Shimoshiraznjibai") which had been separately grown in styrol cups in a greenhouse were transplanted into said Wagner pot. Each of said cucumber seedlings was singly grown in a styrol cup with 200 g of soil. Seven days before it was transplanted, it was sprayed with a 2000 ppm solution of each compound until the stalks and leaves were completely wet.
Just after transplanting and at the end of each week after transplanting, the seedling was sprinkled until completely wet with a 2000 ppm solution of the compound. All the pots were kept in the greenhouse. The test was carried out on lots of three pots each with each pot holding four seedlings.
In the third week of transplanting all the seedlings were checked for the browning of vascular and in the same way as in Test 1.

[4] = test system: rats; conditions: cited from earlier work
[5] = in vivo; cited from earlier work
[6] = test system: pests like fleas, mosquitoes etc.; conditions: cited from earlier work
[7] = test system: Fusarium oxysporum f. cucumerinum; experiment: Fungicidal test by agar dilution method (colony diameter); type: cell-based; conditions: 2.5, 5 and 10 ppm
[8] = test system: Fusarium oxysporum f. cucumerinum; experiment: Test 2: control of Fusarium wilt of cucumber (emulsion, pot test); type: in vivo; conditions: emulsion irrigated 300 ppm, then 1000 ppm twice, third week of transplanting
Procedure: Test of effect of fungicide on control of Fusarium wilt of cucumber (in case of using emulsion).
Fusarium oxysporum f. cucumerinum which had been cultivated for 1 month at 25° C. on soil-bran medium was air-dried overnight and then sifted through a 3 mm-mesh sieve. 15g of said culture soil and 600g of sterilized diluvial soil were blended together.
Next, 1500g of sterilized diluvial soil (containing compost) was placed in a Wagner pot of 1/5000 are, over which the soil prepared above was spread. Cucumber seedlings of one-leaf stage (variety: "Shimoshirazujibai") which had been separately cultivated in styrol cups in a greenhouse were transplanted into said Wagner pot. Each of said cucumber seedlings was singly grown in a styrol cup with 200g of soil. Seven days before it was transplanted, 20 ml of an emulsion of each compound in 300 ppm was irrigated over the soil. Just after transplanting and two weeks after transplanting 50 ml of an emulsion of the compound in 1000 ppm was additionally irrigated. All pots were kept in the greenhouse, the test being carried out on lots each containing three pots and each pot holding four seedlings.
In the third week of transplanting all the seedlings were checked for the browning degree of vascular and in the same way as in Test 1, the effectiveness rating and the sick score were determined.

[9] = test system: genus Bacillus; conditions: 2000 ppm; cited from earlier work
[10] = test system: Escherichia coli; conditions: 2000 ppm; cited from earlier work
[11] = test system: Micrococcus pyogenes var. aureus; conditions: 2000 ppm; cited from earlier work

Structure (SMILES) | diameter of the colony ([1]; 250 ppm) [mm] | diameter of the colony ([1]; 500 ppm) [mm] | diameter of the colony ([1]; 1000 ppm) [mm] | further results
CC(=O)OCCOc1ccccc1 [Compound No. 2] | 37 | 26 |  | Effectiveness Rating II [2]: 80; Effectiveness Rating, 2000 ppm [3]: 67; LD50, acute oral toxicity [4]: 4900 mg/kg; skin cancer [5]: not likely to cause skin cancer; repellency [6]: feebly repellant
CCCCCCCC(=O)OCCOc1ccccc1 [compound 11] | 36 | 32 | 29 | 
CCCCNC(=O)n1c(NC(=O)OC)nc2ccccc21 [Benomyl, methyl-1-(butylcarbamonyl)-2-benzimidazolcarbamate, reference compound] |  |  |  | Effectiveness Rating II [2]: 44; growth of the colony [7]: no growth of the colony was evident
CSCC(=O)OCCOc1ccccc1 [Compound No. 67, β-phenoxyethyl S-methylglycolate] |  |  |  | Effectiveness Rating [8]: 89
C=CC(=O)OCCOc1ccccc1 [Compound No. 23, β-phenoxyethylacrylate] |  |  |  | Effectiveness Rating, 2000 ppm [3]: 30
CC(C)C(=O)OCCOc1ccccc1 [Compound No. 5] | 30 | 23 | 17 | bactericidal effect [9]: non-bactericidal; bactericidal effect [10]: non-bactericidal; bactericidal effect [11]: non-bactericidal
O=COCCOc1ccccc1 [Compound No. 1] | 40 | 30 | 10 | 
CCC(=O)OCCOc1ccccc1 [Compound No. 3] | 25 | 20 | 9 | Effectiveness Rating II [2]: 32
CCC(C)C(=O)OCCOc1ccccc1 (stereo not shown) [Compound No. 7] | 25 | 23 | 16 | 
CCCC(=O)OCCOc1ccccc1 [Compound No. 4] | 32 | 27 | 22 | Effectiveness Rating II [2]: 30
CC(C)(C)C(=O)OCCOc1ccccc1 [compound 15] | 19 | 17 | 13 | 
CC(C)=CC(=O)OCCSc1ccccc1 [compound 74] |  |  |  | Effectiveness Rating, 2000 ppm [3]: 62
CCCCCCC(=O)OCCOc1ccccc1 [compound 10] | 33 | 28 | 24 | 
CCCCCC(=O)OCCOc1ccccc1 [compound 9] | 33 | 30 | 22 | 
CC(CC(=O)OCCOc1ccccc1)CC(C)(C)C (stereo not shown) [compound 14] | 38 | 38 | 35 | 
CC(C)CC(=O)OCCOc1ccccc1 [Compound No. 8] | 24 | 19 | 15 | Effectiveness Rating II [2]: 50
CCCCCCCCCC(=O)OCCOc1ccccc1 [compound 12] | 46 | 41 | 38 | growth / inhibition of colony compared with the control [1]: same growth as the control
CC(C)C(=O)C(=O)OCCOc1ccccc1 [Compound No. 45, β-phenoxyethyl 2-oxo-3-methyl-butanoate] |  |  |  | Effectiveness Rating, 2000 ppm [3]: 76
CC(C)(O)CC(=O)OCCOc1ccccc1 [compound 37] |  |  |  | Effectiveness Rating, 2000 ppm [3]: 40
CCCCCCCCCCCC(=O)OCCOc1ccccc1 [compound 13] | 49 | 45 | 40 | growth / inhibition of colony compared with the control [1]: same growth as the control
CCCCC(=O)OCCOc1ccccc1 [Compound No. 6] | 31 | 26 | 22 | 
